We go through two substances from patent US5195966A, “Treatment of mastitis and applicator therefor” (Diversey Limited, priority 1990, dated 1993).

The conditions of data set [1]: cited from earlier work.
For data set [2] the following is noted: in vivo.
Excerpt: The completed work, which takes the form of a series of individual studies, monitors the level of residues in milk from cows that were subjected to six infusions of a single normal strength "Clorpactin" dose (0.5 grams in 40 mls of physiological saline), both during infusion and for a series of milkings after the treatment was complete.
Analysis of the milk samples from each cow was by ion-pair reverse-phase chromatography. Calculation of the "Clorpactin" residues was, in the case of Study 01, by the peak height method, as the milk used for the standards was obtained from a different source from the cows under test (consequent detection limit 7 ppm). In studies, 02, 03 and 04 as the standards were made in milk obtained from the cow under test a few days prior to treatment, the peak area method was used (detection limit 1 ppm). […] Treatments:
Two mid-lactation cows (Fresian) were selected for the trial, with each being subjected to one course of treatment with the ""Clorpactin WCS-90". Treatments comprised six infusions, following six successive milkings, of "Clorpactin" at a single normal strength dose (0.5 gms per 40 mls of physiological saline)
Two healthy mid-lactation cows (Fresian) were selected for this trial, with again each cow being subjected to a single course of treatment with "Clorpactin WCS-90" Study 02 differed from Study 01 in that a sample of the milk from the quarters under test was removed from the cow a few days prior to treatment, to enable accurate standards to be prepared.
Three healthy mid-lactation cows (Fresian) were selected for the trial, with each being subjected to one course of treatment with the "Clorpactin WCS-90", to each of the four quarters of the animals.
The milk from all four quarters was monitored for residues during and after treatment, with the standards being made up in milk obtained from the quarters a few days before the trial.
Two mastitic cows, used in the efficacy study, were monitored for residues in the milk from a point where the milk appeared to be normal. It was not possible to evaluate the severely mastitic milk as no standards may be prepared to evaluate milk that is constantly changing in composition. The standards used in this case were made in milk obtained some 4 days after the last sample was taken.
Means cited at the foot of the Table are calculated taking the <7 ppm and <1 ppm results as 7 and 1, respectively.
Another data set relates to Str. agalactiae. In words: Clinical cure of mastitis, Str. agalactiae. The note with it: 40 ml 1.25% w/v, 6 infusions at successive milkings. The class given is in vivo, dairy cattle. The source says: (§1) Efficacy studies used half herds on a positive control and half herds on the experimental treatment. The protocol agreed was that herds were randomly split into two halves by number. Odd numbered cows received experimental treatment and even numbered cows received the positive control. Any animal sufficiently badly affected (i.e. systematically affected) should be the subject of a visit from a veterinary surgeon and was not included in the trial on either side.
(§2) Milk samples of each infected quarter were sent to the MMB Laboratories for cell count and bacterial identification as follows:.
(§3) A clinical cure is defined as the udder returning to normal function.
(§4) 40 ml of 1.25% w/v solution of sodium oxychlorosene infused 6 times at 6 milkings.
(§5) 1 full tube of 100 mg procaine penicillin/100 mg dihydro-streptomycin sulphate infused 6 times at 6 milkings. Five measurements can be made from the figures available:
(§6) Odd numbered animals. Sodium oxychlorosene. 40 ml 1.25% w/v. 6 times at successive milkings.
(§7) Procaine penicillin/Dihydrostreptomycin sulphate. 6 times at 6 milkings.

The subject of the next data set is St. faecalis. In words: Minimum inhibitory concentration against St. faecalis. The class given is cell-based. The settings on record: St. faecalis (intestinal flora).
A further data set relates to Str. dysgalactiae. In words: Clinical cure of mastitis, Str. dysgalactiae. The format is in vivo, dairy cattle. The note with it: 40 ml 1.25% w/v, 6 infusions at successive milkings.
Excerpt: as §1, §2, §3, §4, §5, §6, §7

Data set [3] concerns Staph. coagulase positive. In words: Clinical cure of mastitis, Staph. coagulase positive. The format is in vivo, dairy cattle. The settings on record: 40 ml 1.25% w/v, 6 infusions at successive milkings.
Excerpt: as §1, §2, §3, §4, §5, §6, §7

Data set [4] relates to somatic cell counts in milk. In words: Mean somatic cell counts in milk during and after completed treatments. The format is in vivo, dairy cattle.
Excerpt: as §2
Somatic cell counts in milk from individual quarters is an indication of the state of health of that quarter. The higher the cell count, the greater is the degree of infection or the irritant effect in the udder.
The mean cell counts for all experimental milk samples submitted to the MMB are shown below. It is not always possible to obtain a cell count if the milk is obviously mastitic or if the sample deteriorates in transit. One problem with sodium oxychlorosene samples is that, due to lack of inhibitory effects, samples in transit may deteriorate quite rapidly. Samples containing antibiotic inhibitors are generally better protected from microbiological deterioration in transit. Some samples, when specifically needed for cell counts and not for causative organism assay, have been protected by the addition of formalin. This was carried out, for instance, when the irritancy studies were carried out.
(§8) (The variations in n, the number of determinations from which the mean cell count is calculated, are due to various factors, such as samples leaking in transit, faster decomposition of samples in hot weather, especially where no inhibitor substances are present (i.e. sodium oxychlorosene). Mean number of infusions to effect a clinical cure where a clinical cure is affected after up to 6 infusions.

The next data set concerns dairy cattle. The settings on record: bovine, in vivo.
For data set [5] the following is noted: bovine, in vivo.
Experimental: An experimental study was conducted to determine if any absorption occurs between quarters during a course of treatment with "Clorpactin WCS-90".
The method used was to infuse two of the quarters of a healthy cow with a double normal strength course of treatment and to monitor each of the four quarters for "Clorpactin" residues, both during and after the trial. This with the assumption that if the material were being transferred between quarters by any mechanism it would be detected in the untreated quarters.
Analysis of the milk samples from each quarter was by ion-pair reverse-phase chromatography.
Calculation of the "Clorpactin" residues was by peak area with the milk used for the standards being prepared from milk obtained several days before treatment.
Two of the quarters were each infused with a double normal dose of "Clorpactin WCS-90" (2×0.5 g in 40 mls of physiological saline) on six consecutive occasions following 6 milkings.
The milk from all four quarters was monitored for residues both during and after the trial to determine if any transfer to untreated quarters had occurred.
The first infusion occurred after Milking No. 1, with the consequence that Milking 1 represents the background.
The test system of another data set is mastitis. Nature of the data set: Clinical efficacy in mastitis, overall and number of infusions to effect a clinical cure. The format is in vivo, dairy cattle.
Excerpt: as §1, §2, §3, §4, §5, §8

The subject of the next data set is rats. In words: LD50 of Clorpactin WCS-90 in a milk vehicle by the oral route. The class given is in vivo. The note with it: sterilized, γ-irradiated (2.5 megarads).
The test system of data set [6] is E. coli. Nature of the data set: Clinical cure of mastitis, E. coli. The class given is in vivo, dairy cattle. The note with it: of 4 cases; 40 ml 1.25% w/v, 6 infusions at successive milkings.
Excerpt: as §1, §2, §3, §4, §5, §6, §7

Data set [7] relates to E. coli. In words: Minimum inhibitory concentration against E. coli. The format is cell-based. The note with it: E. coli (intestinal flora).
Another data set has as its system Str. uberis. Nature of the data set: Clinical cure of mastitis, Str. uberis. The class given is in vivo, dairy cattle. The settings on record: 40 ml 1.25% w/v, 6 infusions at successive milkings.
Excerpt: as §1, §2, §3, §4, §5, §6, §7

The subject of data set [8] is starters Streptococcus thermophilus and Lactobacillus bulgarius. In words: Inhibitory effect on yoghurt starter cultures (lactic acid by titratable acidity). The class given is cell-based. On the procedure:
The inhibitory effect of "Clorpactin" on starter cultures was also investigated: Raw whole milk was pasteurized and spiked with various concentrations of freshly prepared "Clorpactin". These samples were inoculated with the starters Streptococcus thermophilus and Lactobacillus bulgarius contained in natural yoghurt, incubated at 37°/5 hours and the percent lactic acid determined by titratable acidity (BSI, 1741:1963).

On to (mon)oxychlorosene, for which, in data set [1] (after dissolving), the hydrolysis in water entry is on record as “hydrolyses rapidly”. In [1], the dissolution in water result is “dissolves slowly in water”.

As to sodium oxychlorosene, the “10× mean residue level after withdrawal period” value in data set [2] was 31 ppm. Moreover, the “levels detected after treatment is complete” value in [2] is listed as “quickly drops off to background”. Moreover, the “milking by which background has been achieved” value in data set [2] is recorded as at most 8. Also, the “withdrawal after treatment supported by the data” value in [2] was “one milking withdrawal”. The “% Clinical Cures” value in the data set on Str. agalactiae (51 cases) came out at 82%; in the data set on Str. dysgalactiae (10 cases), 70%; in [3] (72 cases) it was 90%; with Str. uberis (25 cases), 76%. Also, the “Clinical Cures” value in the data set on Str. agalactiae (of 51 cases) worked out at 41; in the data set with Str. dysgalactiae (of 10 cases), 7; in data set [3] (of 72 cases), 65; with E. coli [6], 3; in the data set with Str. uberis (of 25 cases), 19. In addition, the minimum inhibitory concentration entry in the data set with St. faecalis and in the data set on E. coli [7] was “approximately 2000 ppm” throughout. Also, the “Mean Cell Counts” value in data set [4] (day 0) came to 6870; in data set [4] (day 1), 6092; in data set [4] (day 2), 4912; in data set [4] (day 3), 4845; in data set [4] (day 4), 3468; in data set [4] (day 5), 2018. The figures for the “Mean Cell Counts” value in data set [4] (day 12) and in data set [4] (day 19) were 1576 and 965, respectively. The adverse effects result in the data set with dairy cattle is “No adverse effects were found”. Further, the “Clorpactin in the untreated quarters” value in [5] is “No evidence of any "Clorpactin" was detected in the untreated quarters”. Moreover, the “milking number by which level is clear” value in [5] is on record as at most 8. Further, the “transference to the untreated quarters” value in data set [5] is recorded as “no mechanism of transference”. Besides, the “clinical cure versus the conventional antibiotic” value in the data set with mastitis (1.25% w/v, 95% confidence level) is “superior to the conventional antibiotic”. For the same substance, the “significance (p) of mean number of infusions, Experimental vs Positive control” value in the data set with mastitis (72 degrees of freedom, t = 3.098) was under 0.01. The “Mean number of infusions to effect a clinical cure” value in the data set with mastitis (clinical cure effected after up to 6 infusions, n = 70 (sodium oxychlorosene 1.25% w/v, On1 1.61), n = 30 (antibiotic, On1 1.10)) is on record as 4.11. Further, the LD50 (commonly the dose expected to kill half of the subjects tested) with rats is listed as over 5.00 g/kg. In addition, the percent lactic acid result in data set [8] (Clorpactin-spiked milk up to 0.01% (100 ppm), 37°/5 hours, control also about 0.9%) is “about 0.9 % lactic acid”. Further, the “effect on yoghurt starter culture activity” value in [8] (conclusion) is listed as “no adverse affect on yoghurt starter culture activity”. Besides, the “effect on lactic acid production” value in [8] (levels of up to 0.01% (100 ppm) in pasteurized milk, 37°/5 hours) is reported as “no effect on lactic acid production”.
